Data: patent EP4678638A1, “NEW E3 UBIQUITIN LIGASE LIGAND, PROTEIN DEGRADATION AGENT AND USE THEREOF” (priority 2023, dated 2024)
Read-outs that look alike come from different tables or passages of the source.

What was measured:
FAK = target: T1, FAK (Homo sapiens, UniProt Q05397); assay: Western blot degradation of FAK; format: cell-based; settings: Table D7
T1 construct: evaluate the effects of the compounds of the present disclosure on the expression of target proteins in cells; endogenous in cells
T1 sequence (Q05397 whole entry, species assumed): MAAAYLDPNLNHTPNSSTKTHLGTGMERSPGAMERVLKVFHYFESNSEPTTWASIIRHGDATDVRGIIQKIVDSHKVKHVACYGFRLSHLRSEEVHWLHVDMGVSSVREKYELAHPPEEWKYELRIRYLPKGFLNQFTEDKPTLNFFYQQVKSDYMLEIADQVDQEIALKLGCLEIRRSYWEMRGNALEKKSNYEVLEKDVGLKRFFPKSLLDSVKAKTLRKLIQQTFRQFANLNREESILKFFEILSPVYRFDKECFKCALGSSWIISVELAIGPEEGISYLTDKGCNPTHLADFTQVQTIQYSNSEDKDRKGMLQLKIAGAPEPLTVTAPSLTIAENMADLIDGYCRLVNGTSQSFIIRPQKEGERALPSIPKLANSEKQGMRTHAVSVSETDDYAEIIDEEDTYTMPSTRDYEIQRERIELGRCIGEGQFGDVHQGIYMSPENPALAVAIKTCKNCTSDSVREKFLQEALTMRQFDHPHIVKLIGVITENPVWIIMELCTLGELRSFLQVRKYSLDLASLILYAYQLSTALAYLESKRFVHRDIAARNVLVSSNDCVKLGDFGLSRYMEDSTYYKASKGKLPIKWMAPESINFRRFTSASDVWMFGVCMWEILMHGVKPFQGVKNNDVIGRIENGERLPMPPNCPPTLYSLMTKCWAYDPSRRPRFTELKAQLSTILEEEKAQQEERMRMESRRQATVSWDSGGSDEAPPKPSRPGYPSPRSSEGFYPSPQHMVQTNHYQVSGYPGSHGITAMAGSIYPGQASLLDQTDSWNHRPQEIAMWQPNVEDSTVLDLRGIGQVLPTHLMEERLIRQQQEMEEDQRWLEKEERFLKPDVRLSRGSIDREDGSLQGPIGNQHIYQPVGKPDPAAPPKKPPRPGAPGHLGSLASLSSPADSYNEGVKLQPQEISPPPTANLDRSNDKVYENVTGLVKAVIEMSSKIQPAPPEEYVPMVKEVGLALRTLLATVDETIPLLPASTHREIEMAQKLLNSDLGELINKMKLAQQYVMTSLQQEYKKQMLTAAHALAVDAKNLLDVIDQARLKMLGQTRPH
Experimental: Conventional Western blot assay was performed to evaluate the effects of the compounds of the present disclosure on the expression of target proteins in cells.
(1) Cell Seeding and Protein Harvesting: The selected cells were processed according to the cell seeding procedure and protein harvesting procedure in Table III-2. Table III-2 Cell Seeding and Protein Harvesting Procedures
(2) To the collected supernatant, 5X SDS sample loading buffer was added, followed by denaturation at 95°C for 5 minutes. The denatured samples were then separated by SDS-PAGE electrophoresis on a polyacrylamide gel. Proteins were transferred to a nitrocellulose membrane (0.45 µm NC membrane), blocked with blocking buffer at room temperature for 1 hour, and subjected to antibody incubation and development procedures according to the antibody manufacturer's instructions (Cell Signaling Technology).
Half-Maximal Degradation Concentration value (the drug concentration required for degrading proteins by 50%, abbreviated as DC50) reads method: comparing the grayscale values of Western blot bands from drug-treated samples with those from blank DMSO-treated controls, and identifying the drug concentration range at which the grayscale value is half that of the DMSO-treated control bands.
DC50 values can be calculated using ImageJ software to measure grayscale values of Western blot bands from drug-treated samples. The concentration-response curve is fitted to estimate the drug concentration corresponding to half the grayscale value.
Target protein remaining (%) refers to the percentage of target protein remaining in hPBMC cells after treatment with protein degrader compounds.
Calculation method for target protein remaining (%): Use ImageJ software to measure grayscale values of Western blot bands from drug (protein degrader)-treated samples. The grayscale value of drug-treated bands is divided by that of internal control protein bands, and the resulting quotient is normalized to obtain the relative percentage of remaining target protein after protein degrader treatment.
Target protein degradation rate (%) = 100% - target protein remaining (%).

SR = assay: CCK-8 proliferation, SR; format: cell-based, Human; settings: Homo sapiens; Table B10, compounds designed based on the IRAK4 inhibitors; SR cells; read-out: Inhibitory activity (IC50, nM) on tumor cell proliferation, SR
In short: (§1)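 CCK-8 viability readout; IC50 from growth-inhibition curve fitting. Cells plated, dosed 24h later with a 10-point series, top 10µM, 5-fold steps. Culture at 37°C, 5% CO2.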

MM.1S = assay: CCK-8 proliferation, MM.1S; format: cell-based; settings: Homo sapiens, MM1.S; Table B10, compounds designed based on the IRAK4 inhibitors; MM.1S cells; read-out: Inhibitory activity (IC50, nM) on tumor cell proliferation, MM.1S
In short: as §1

Jurkat = assay: CCK-8 proliferation, Jurkat; format: cell-based, Human; settings: Homo sapiens
Experimental: The tumor cells used herein were cultured in a cell culture medium listed in table A1 at 37°C in an incubator with 5% CO2. Prior to experimentation, all cell lines used were correctly identified by STR profiling, and tested negative for mycoplasma contamination using a mycoplasma detection kit through routine screenings. Table A1. Tumor cells and cell culture medium used in the present disclosure
IC50 values of the compounds of the present disclosure (including the compounds in Table 1, and compounds of examples) were measured using the Meilun Cell Counting Kit-8 kit from Dalian Meilun Biotech Co., Ltd. Assay details are as follows: tumor cells were seeded in a 96-well plate at a density listed in Table A2. After 24h, 100 µL of the inoculated cells were treated with 0.5µL of the compounds of the present disclosure (including the compounds in Tables 1 and 2, and compounds of examples) at 10 different successively decreasing concentrations (starting at the highest concentration of 10µM; 5-fold serial dilutions). After the cells were treated with the compounds of the present disclosure for a period of time, the cell viability detection reagent was added to the culture medium for cell viability assessment according to the instructions provided with the CCK-8 kit. […] The growth inhibition of the compounds of the present disclosure on cells was plotted by Prism Graphpad software, and the IC50 values of the compounds of the present disclosure were calculated therefrom. […] Seeding protocol and treatment time for tumor cells

IRAK4 = target: T2, IRAK4 (Homo sapiens, UniProt Q9NWZ3); assay: Western blot degradation of IRAK4 (hPBMC); format: cell-based; settings: Table D1
T2 construct: evaluate the effects of the compounds of the present disclosure on the expression of target proteins in cells; endogenous in cells; host or cells: hPBMC
T2 sequence (Q9NWZ3 1-460): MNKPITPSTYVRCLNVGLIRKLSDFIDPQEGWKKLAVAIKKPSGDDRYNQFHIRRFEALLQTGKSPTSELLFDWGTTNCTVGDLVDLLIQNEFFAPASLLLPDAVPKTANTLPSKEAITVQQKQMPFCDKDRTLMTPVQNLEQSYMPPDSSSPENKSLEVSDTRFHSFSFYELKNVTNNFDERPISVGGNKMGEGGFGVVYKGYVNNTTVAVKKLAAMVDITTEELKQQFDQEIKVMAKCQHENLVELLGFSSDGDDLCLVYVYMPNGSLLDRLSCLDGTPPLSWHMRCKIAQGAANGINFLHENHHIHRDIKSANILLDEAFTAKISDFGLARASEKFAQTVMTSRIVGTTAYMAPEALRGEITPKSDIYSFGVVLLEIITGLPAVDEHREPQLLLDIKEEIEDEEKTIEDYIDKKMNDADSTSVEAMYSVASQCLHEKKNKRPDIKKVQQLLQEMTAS
In short: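 Degradation is assessed by immunoblotting lysates of treated cells. Target bands are quantified by grayscale and normalised to an internal control, so degradation rate equals 100% minus % remaining.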

CCRF-CEM = assay: CCK-8 proliferation, CCRF-CEM; format: cell-based, Human; settings: Homo sapiens, CCRF-CEM; CCK-8; 96 hours; read-out: Inhibitory activity (IC50) on tumor cell proliferation, CCRF-CEM
In short: as §1

[1] = Jurkat, CCK-8, 96 hours, read-out: Inhibitory activity (IC50) on tumor cell proliferation, Jurkat

Structure (SMILES)	Degradation of substrate protein FAK (substrate protein remaining %) (FAK)	other results
CNC(=O)c1ccccc1Nc1cc(Nc2ccc(N3CCC(N(C)Cc4ccnc(N5CCC(=O)NC5=O)c4)CC3)cc2OC)ncc1C(F)(F)F [GT-07654, 2-((2-((4-(4-(((2-(2,4-dioxotetrahydropyrimidin-1(2H)-yl)pyridin-4-yl)methyl)(methyl)amino)piperidin-1-yl)-2-methoxyphenyl)amino)-5-(trifluoromethyl)pyridin-4-yl)amino)-N-methylbenzamide]	A (A is defined as 0% ≤ substrate protein remaining % ≤ 80%)	
O=C1CCC(Nc2cccc(CN3CCC(N4CCN(c5ccc6c(c5)nc(NC(=O)c5cccc(C(F)(F)F)c5)n6[C@H]5CC[C@@H](CO)CC5)CC4)CC3)c2)C(=O)N1 (stereo partly shown) [GT-05023, N-(5-(4-(1-(3-((2,6-dioxopiperidin-3-yl)amino)benzyl)piperidin-4-yl)piperazin-1-yl)-1-((1s,4s)-4-(hydroxymethyl)cyclohexyl) -1H-benzo[d]imidazol-2-yl)-3-(trifluoromethyl)benzamide]		IC50 (SR): 500 to 1000 nM; IC50 (MM.1S): 500 to 1000 nM; IC50 (Jurkat; Table B10, compounds designed based on the IRAK4 inhibitors, Jurkat cells, read-out: Inhibitory activity (IC50, nM) on tumor cell proliferation, Jurkat): 500 to 1000 nM; Degradation of substrate protein IRAK4 (substrate protein remaining %) (IRAK4): A (A is defined as 0% ≤ substrate protein remaining % ≤ 80%)
CNC(=O)c1ccccc1Nc1cc(Nc2cc(C)c(C3CCN(Cc4cnc(N5CCC(=O)NC5=O)cn4)CC3)cc2OC(C)C)ncc1C(F)(F)F [GT-07680, 2-((2-((4-(1-((5-(2,4-dioxotetrahydropyrimidin-1(2H)-yl)pyrazin-2-yl)methyl)piperidin-4-yl)-2-isopropoxy-5-methylphenyl)amino)-5-(trifluoromethyl)pyridin-4-yl)amino)-N-methylbenzamide]	A (A is defined as 0% ≤ substrate protein remaining % ≤ 80%)	
CNC(=O)c1ccccc1Nc1cc(Nc2cc(C)c(C3CCN(Cc4ccc(C5CCC(=O)NC5=O)cc4)CC3)cc2OC(C)C)ncc1C(F)(F)F (stereo not shown) [GT-04084, 2-((2-((4-(1-(4-(2,6-dioxopiperidin-3-yl)benzyl)piperidin-4-yl)-2-isopropoxy-5-methylphenyl)amino)-5-(trifluoromethyl)pyridin-4-yl)amino)-N-methylbenzamide]	A (A is defined as 0% ≤ substrate protein remaining % ≤ 80%)	
CN(c1nccnc1CNc1nc(Nc2ccc(N3CCN(Cc4cccc(N5CCC(=O)NC5=O)c4)CC3)cc2)ncc1C(F)(F)F)S(C)(=O)=O [GT-07401, N-(3-(((2-((4-(4-(3-(2,4-dioxotetrahydropyrimidin-1(2H)-yl)benzyl)piperazin-1-yl)phenyl)amino)-5-(trifluoromethyl)pyrimidin-4-yl)amino)methyl)pyrazin-2-yl)-N-methylmethanesulfonamide]	A (A is defined as 0% ≤ substrate protein remaining % ≤ 80%)	
CNC(=O)c1ccccc1Nc1cc(Nc2ccc(N3CCC(N(C)Cc4ccc(C5CCC(=O)NC5=O)nc4)CC3)cc2OC)ncc1C(F)(F)F (stereo not shown) [GT-07657, 2-((2-((4-(4-(((6-(2,6-dioxopiperidin-3-yl)pyridin-3-yl)methyl)(methyl)amino)piperidin-1-yl)-2-methoxyphenyl)amino)-5-(trifluoromethyl)pyridin-4-yl)amino)-N-methylbenzamide]	A (A is defined as 0% ≤ substrate protein remaining % ≤ 80%)	
CN(c1nccnc1CNc1nc(Nc2ccc(N3CCN(Cc4ccnc(C5CCC(=O)NC5=O)c4)CC3)cc2)ncc1C(F)(F)F)S(C)(=O)=O (stereo not shown) [GT-07507, N-(3-(((2-((4-(4-((2-(2,6-dioxopiperidin-3-yl)pyridin-4-yl)methyl)piperazin-1-yl)phenyl)amino)-5-(trifluoromethyl)pyrimidin-4-yl)amino)methyl)pyrazin-2-yl)-N-methylmethanesulfonamide]	A (A is defined as 0% ≤ substrate protein remaining % ≤ 80%)	
CNC(=O)c1ccccc1Nc1cc(Nc2ccc(N3CCC(N(C)Cc4ccc(C5CCC(=O)NC5=O)cn4)CC3)cc2OC)ncc1C(F)(F)F (stereo not shown) [GT-07658, 2-((2-((4-(4-(((5-(2,6-dioxopiperidin-3-yl)pyridin-2-yl)methyl)(methyl)amino)piperidin-1-yl)-2-methoxyphenyl)amino)-5-(trifluoromethyl)pyridin-4-yl)amino)-N-methylbenzamide]	A (A is defined as 0% ≤ substrate protein remaining % ≤ 80%)	
CN(c1nccnc1CNc1nc(Nc2ccc(N3CCN(Cc4cncc(C5CCC(=O)NC5=O)c4)CC3)cc2)ncc1C(F)(F)F)S(C)(=O)=O (stereo not shown) [GT-07510, N-(3-(((2-((4-(4-((5-(2,6-dioxopiperidin-3-yl)pyridin-3-yl)methyl)piperazin-1-yl)phenyl)amino)-5-(trifluoromethyl)pyrimidin-4-yl)amino)methyl)pyrazin-2-yl)-N-methylmethanesulfonamide]	A (A is defined as 0% ≤ substrate protein remaining % ≤ 80%)	
CC1(C)CCC(c2ccc(Cl)cc2)=C(CN2CCN(c3ccc(C(=O)NS(=O)(=O)c4ccc(N[C@H](CCN5CCN(Cc6ccnc(N7CCC(=O)NC7=O)c6)CC5)CSc5ccccc5)c(S(=O)(=O)C(F)(F)F)c4)cc3)CC2)C1 [GT-07717, (R)-4-(4-((4'-chloro-4,4-dimethyl-3,4,5,6-tetrahydro-[1,1'-biphenyl]-2-yl)methyl)piperazin-1-yl)-N-((4-((4-(4-((2-(2,4-dioxotetrahydropyrimidin-1(2H)-yl)pyridin-4-yl)methyl)piperazin-1-yl)-1-(phenylthio)butan-2-yl)amino)-3-((trifluoromethyl)sulfonyl)phenyl)sulfonyl)benzamide]		IC50 (CCRF-CEM): 0.01 to 0.05 µM; IC50 (Jurkat; [1]): 10 to 50 nM
CC1(C)CCC(c2ccc(Cl)cc2)=C(CN2CCN(c3ccc(C(=O)NS(=O)(=O)c4ccc(N[C@H](CCN5CCN(Cc6cc(N7CCC(=O)NC7=O)ncc6F)CC5)CSc5ccccc5)c(S(=O)(=O)C(F)(F)F)c4)cc3)CC2)C1 [GT-07716, (R)-4-(4-((4'-chloro-4,4-dimethyl-3,4,5,6-tetrahydro-[1,1'-biphenyl]-2-yl)methyl)piperazin-1-yl)-N-((4-((4-(4-((2-(2,4-dioxotetrahydropyrimidin-1(2H)-yl)-5-fluoropyridin-4-yl)methyl)piperazin-1-yl)-1-(phenylthio)butan-2-yl)amino)-3-((trifluoromethyl)sulfonyl)phenyl)sulfonyl)benzamide]		IC50 (CCRF-CEM): 0.01 to 0.05 µM; IC50 (Jurkat; [1]): 50 to 100 nM
